Key:
[1] = system: re-aggregated endocrine cell aggregates; test: Cell-to-cell association of re-aggregated endocrine cell aggregates (stereomicroscope images); assay type: cell-based, human; settings: 10 μM Y-27632, Matrigel 0.05% v/v
Method: In Example 11 above, the cell aggregates were dissociated and re-aggregated or re-associated between stage 6 and 7. Dissociation was performed using Accutase on or around day 20 and re-aggregated in rotation culture, substantially as described in Schulz et al. supra. The re-aggregation removes certain PEC sub-populations including any remaining non-endocrine (CHGA−) sub-populations as well as other non-endocrine cells as described in more detail in Kelly et al. (2011), supra. Endocrine cells have affinity for each other, however, this interaction in vitro is relatively weak, even the re-aggregated cells at stages 6/7 were only loosely associated. So, studies were performed to test various factors and agents for their ability to increase the cell-to-cell interactions within the endocrine cell aggregates.
The combination of Y-27632 and Matrigel increased at least for example the cell-to-cell interaction of the cell aggregates over either component alone.
A differentiated culture produced substantially as described in Example 12, at day 20 was dissociated with Accutase and re-aggregated in db with 5% FBS (lower concentrations of FBS, i.e. 2% or 1% are also effective) and DNAse. Y-27632 was not included in the re-aggregation medium as doing so would result in incorporation of non-endocrine (CHGA−) sub-population as well as other non-endocrine cells into the newly formed aggregates. […]

[2] = system: INS, GCG, SST, GHRL, PDX1, NKX6.1, NGN3, ID1 expression; test: Nanostring mRNA analysis of endocrine cell cultures; assay type: cell-based, human; settings: for pancreatic-lineage gene expression: agent at days 30-35 during stage 7, analyzed at d35
[3] = system: SOX17 expression; settings: 1 μg/mL of insulin; cited from earlier work
[4] = system: hES-derived cell aggregates; test: Cell aggregate size / cell mass in suspension culture (imaging); assay type: cell-based, human; settings: 3 days of 50 ng/mL at stage 3 as compared to 2 days
Method: Preliminary studies were performed using Heregulin and FGF. In certain of these studies, Rho-kinase inhibitor, Y-27632, was included. […] An increase in cell aggregate size is advantageous in that it results in higher cell mass for later implantation and testing for function in animals.
Various growth factors were explored for their ability to suppress genes such as NGN3 during stages 3 and 4. One candidate growth factor was Activin which has diverse functions in stem cell expansion and differentiation. For example, at low levels (e.g. 10 ng/mL), Activin helps maintain pluripotent stem cell pluripotency and cell proliferation. At higher levels (e.g. 100 ng/mL) Activin acts as a differentiation growth factor responsible for definitive endoderm production at stage 1 (see e.g., Table 8). To test its effect on repressing cells committed to the endocrine lineage (CHGA+) during PEC formation, Applicant first tested Activin at a mid-level concentration of about 50 ng/mL with standard adherent differentiation.
So, Activin levels less than about 25 ng/mL are acceptable for maintaining cell mass and yield. Applicant then performed flow cytometry analysis on these cell cultures to determine whether Activin at low levels during stages 3 and 4 had any effect on cell aggregate composition; see Table 14. […]

[5] = system: PEC derived from hESC; test: Flow cytometry analysis of PEC derived from hESC (CHGA, NKX6.1, PDX1 sub-populations); assay type: cell-based, human
Method: So, Activin levels less than about 25 ng/mL are acceptable for maintaining cell mass and yield. Applicant then performed flow cytometry analysis on these cell cultures to determine whether Activin at low levels during stages 3 and 4 had any effect on cell aggregate composition; see Table 14. […] Advantageously, the PDX1 only and Triple Negative sub-populations are reduced as compared to the control, particularly when Activin is used in stages 3 and 4.
To determine the cell composition of the PEC population with the combination of Activin, Heregulin and Wnt during stage 3, flow cytometry was performed after stage 4 and the PEC cellular composition is shown in Table 14. […] Data from flow cytometry supports and is consistent with data from QPCR that the combination of the three factors (AHW) in general delayed or suppressed differentiation of cells committed to the endocrine lineage (CHGA+) in PEC without affecting the production of the non-endocrine (CHGA−) sub-population. The delayed expression of these genes in vitro is consistent with their on-set (or delay) in in vivo mammalian pancreatic development, whereby NGN3 expression in endocrine differentiation occurs after the on-set of PDX1 and NKX6.1 expression in the non-endocrine (CHGA−) sub-population. Additionally, there was no compromise in the PEC mass and yield. […]
Undifferentiated human ESC were expanded and differentiated substantially as described above in Table 17 Protocol #1 for stages 1-4 and in Schulz et al. (2012) supra, except that during the three (3) days of stage 3, 4 different conditions were compared: (i) 0 noggin (“no noggin”) for all 3 days; (ii) 1 day of Noggin at 50 ng/mL and 2 days with no additional Noggin; (iii) 2 days of Noggin at 50 ng/mL and 1 day with no additional noggin; and (iv) 3 days of Noggin at 50 ng/mL. After stage 3, each of these conditions (i) through (iv) then received the standard stage 4 differentiation media cocktail according to Table 8 and Table 17, but without additional Noggin. […] Moreover, with each additional day of noggin treatment, fewer non-endocrine multipotent pancreatic progenitor sub-populations were produced (compare 90.6% with no noggin to 64.6% with 3 days of noggin treatment).

[6] = 50 ng/mL of FGF2 for 2 days at stage 3
[7] = 50 ng/mL of FGF2 for 3 days at stage 3

C[C@@H](N)[C@H]1CC[C@H](C(=O)Nc2ccncc2)CC1 [Y-27632]
cell associations of re-aggregated endocrine cell aggregates [1]: capable of promoting tighter cell associations

FGF1: acidic FGF
pancreatic-lineage gene expression [2]: upregulated GCG and SST

IGF2: Insulin-like growth factor II
INS expression ([2]; 25 or 100 ng/mL from day 17 for about 3 days, stage 6, data not shown): more capable of inducing INS expression than IGF1

insulin
SOX17 expression is reduced [3]: 4 fold

CC(C)(C(=O)NCC(F)(F)C(F)(F)F)C(=O)N[C@@H]1C(=O)Nc2ccccc2-c2ccccc21 [RO4929097, reference compound]
NGN3 expression ([2]; 1 μM for 2 days at stage 5, day 15 versus day 13): strongly induced NGN3 expression

FGF2: Fibroblast growth factor 2
pancreatic-lineage gene expression [2]: significant increase in SST expression | cell aggregate size [4]: An increase in cell aggregate size was also observed | CHGA+ (Endocrine) [5, 6]: 11.9% | CHGA− NKX6.1− PDX1− (Triple Negative/Residual Cells) [5, 6]: 9.15% | CHGA−, NKX6.1+, PDX1+ (Non-endocrine) [5, 6]: 79% | CHGA+ (Endocrine) [5, 7]: 0.33% | CHGA− NKX6.1− PDX1− (Triple Negative/Residual Cells) [5, 7]: 22.7% | CHGA−, NKX6.1+, PDX1+ (Non-endocrine) [5, 7]: 76.9%

C/C(=C\c1ccc(C(=O)O)cc1)c1ccc2c(c1)C(C)(C)CCC2(C)C [TTNPB, 4-[(E)-2-(5,6,7,8-Tetrahydro-5,5,8,8-tetramethyl-2-naphthalenyl)-1-propenyl]benzoic acid, reference compound]
PDX1 expression ([2]; 0.5 nM alone at stages 6 & 7 or stage 7 alone): does not appear to increase PDX1 expression

NC(=O)c1cccnc1 [nicotinamide, reference compound]
increase in the INS/GCG expression ratio ([2]; stage 6 culture conditions, analyzed at day 21): 3 fold
